{"source": "ChEMBL document CHEMBL1158077", "about": "“Microbial transformation and butyrylcholinesterase inhibitory activity of (-)-caryophyllene oxide and its derivatives” (J Nat Prod, 2006)", "molecular_target": "Cholinesterase (Equus caballus, UniProt P81908)", "sequence (P81908 whole entry)": "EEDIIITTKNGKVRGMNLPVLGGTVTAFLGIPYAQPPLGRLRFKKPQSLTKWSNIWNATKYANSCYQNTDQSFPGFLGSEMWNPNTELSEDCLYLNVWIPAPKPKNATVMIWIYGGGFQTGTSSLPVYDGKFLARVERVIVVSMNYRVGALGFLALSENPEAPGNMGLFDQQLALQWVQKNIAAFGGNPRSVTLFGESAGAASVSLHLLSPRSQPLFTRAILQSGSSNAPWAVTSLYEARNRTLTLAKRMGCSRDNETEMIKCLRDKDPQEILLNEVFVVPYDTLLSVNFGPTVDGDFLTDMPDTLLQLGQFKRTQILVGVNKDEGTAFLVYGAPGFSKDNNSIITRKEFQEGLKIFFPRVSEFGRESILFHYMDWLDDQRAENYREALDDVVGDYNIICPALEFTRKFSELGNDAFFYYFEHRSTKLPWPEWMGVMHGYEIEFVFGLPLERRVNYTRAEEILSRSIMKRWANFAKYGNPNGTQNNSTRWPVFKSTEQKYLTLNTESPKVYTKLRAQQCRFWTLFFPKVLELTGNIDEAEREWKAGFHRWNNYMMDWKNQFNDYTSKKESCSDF", "assay": "Inhibition of horse serum BuChE by Ellman's method", "note": "pIC50: −log10 of the molar value."}
{"smiles": "C=C1CC[C@H]2O[C@]2(C)CC[C@@H]2[C@@H]1C[C@@]2(C)CO", "values": [{"measurement": "pIC50", "value": 3.72}]}
{"smiles": "CC1(C)C[C@H]2[C@H]1CC[C@]1(C)[C@H](O)CC[C@@]2(O)[C@H]1O", "values": [{"measurement": "pIC50", "value": 4.63}]}
{"smiles": "CC1(C)C[C@H](O)[C@]23CC[C@@H](O)[C@](C)(CC[C@@H]12)C3", "values": [{"measurement": "pIC50", "value": 3.34}]}
{"smiles": "C=C1CC[C@H]2O[C@]2(C)CC[C@@H]2[C@@H]1C[C@]2(C)CO", "values": [{"measurement": "pIC50", "value": 4.96}]}
{"smiles": "CC1(C)C[C@@H]2[C@@H](CO)CC[C@H]3O[C@]3(C)CC[C@H]21", "values": [{"measurement": "pIC50", "value": 4.58}]}
{"smiles": "C=C1CC[C@@H]2O[C@]2(C)CC[C@@H]2[C@@H]1CC2(C)C", "values": [{"measurement": "pIC50", "value": 3.68}]}
{"smiles": "CC1(C)C[C@@H]2[C@@H](CO)CC[C@H]3O[C@]3(C)[C@H](O)C[C@H]21", "values": [{"measurement": "pIC50", "value": 3.81}]}
{"smiles": "C=C1CC[C@@H](O)[C@](C)(O)CC[C@@H]2[C@@H]1CC2(C)C", "values": [{"measurement": "pIC50", "value": 4.36}]}
{"smiles": "CC1(C)C[C@H](O)[C@]23CC[C@@H](O)[C@](CO)(CC[C@@H]12)C3", "values": [{"measurement": "pIC50", "value": 4.36}]}
{"smiles": "CC1(C)C[C@@H]2C(=O)CC[C@H]3O[C@]3(C)C[C@H](O)[C@H]21", "values": [{"measurement": "pIC50", "value": 3.34}]}
